# Calls of active or inactive are those of the source.
# Assays:
# Large T antigen = Large T antigen (Simian virus 40, UniProt P03070); type: functional, Betapolyomavirus macacae;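 further: Confirmatory-stage PubChem screen for compounds that inhibit SV40 T antigen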
# [1] = target: Induced myeloid leukemia cell differentiation protein Mcl-1 (Homo sapiens, UniProt Q07820); type: functional
# [2] = target: Dual specificity protein phosphatase 3 (Homo sapiens, UniProt P51452); test: SAR VHR1 Fluorescent Assay for In Vitro dose response studies. [Related pubchem assays (depositor defined):AID1654, AID1661, AID1878, AID1992, AID2004, AID2070, AID2085]; type: functional
# Salmon testes DNA = test: acridine orange-DNA binding displacement – biochemical, fluorescence polarization, cherry-picked samples, set 2, artefact control for KSHV LANA DNA-binding inhibitor project, dose response (AID 504727); design: species or system Salmonidae
# ORF 73 = target: T1, ORF 73 (Human herpesvirus 8, UniProt O40947); test: KSHV LANA DNA-binding disruption – biochemical, fluorescence polarization, cherry-picked samples, dose response (AID 504725); design: species or system Human gammaherpesvirus 8;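 further: fluorescence polarization of a labeled DNA duplex reporting LANA DNA binding; potency is for inhibitors that block LANA binding to the DNA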
# T1 sequence (O40947 whole entry): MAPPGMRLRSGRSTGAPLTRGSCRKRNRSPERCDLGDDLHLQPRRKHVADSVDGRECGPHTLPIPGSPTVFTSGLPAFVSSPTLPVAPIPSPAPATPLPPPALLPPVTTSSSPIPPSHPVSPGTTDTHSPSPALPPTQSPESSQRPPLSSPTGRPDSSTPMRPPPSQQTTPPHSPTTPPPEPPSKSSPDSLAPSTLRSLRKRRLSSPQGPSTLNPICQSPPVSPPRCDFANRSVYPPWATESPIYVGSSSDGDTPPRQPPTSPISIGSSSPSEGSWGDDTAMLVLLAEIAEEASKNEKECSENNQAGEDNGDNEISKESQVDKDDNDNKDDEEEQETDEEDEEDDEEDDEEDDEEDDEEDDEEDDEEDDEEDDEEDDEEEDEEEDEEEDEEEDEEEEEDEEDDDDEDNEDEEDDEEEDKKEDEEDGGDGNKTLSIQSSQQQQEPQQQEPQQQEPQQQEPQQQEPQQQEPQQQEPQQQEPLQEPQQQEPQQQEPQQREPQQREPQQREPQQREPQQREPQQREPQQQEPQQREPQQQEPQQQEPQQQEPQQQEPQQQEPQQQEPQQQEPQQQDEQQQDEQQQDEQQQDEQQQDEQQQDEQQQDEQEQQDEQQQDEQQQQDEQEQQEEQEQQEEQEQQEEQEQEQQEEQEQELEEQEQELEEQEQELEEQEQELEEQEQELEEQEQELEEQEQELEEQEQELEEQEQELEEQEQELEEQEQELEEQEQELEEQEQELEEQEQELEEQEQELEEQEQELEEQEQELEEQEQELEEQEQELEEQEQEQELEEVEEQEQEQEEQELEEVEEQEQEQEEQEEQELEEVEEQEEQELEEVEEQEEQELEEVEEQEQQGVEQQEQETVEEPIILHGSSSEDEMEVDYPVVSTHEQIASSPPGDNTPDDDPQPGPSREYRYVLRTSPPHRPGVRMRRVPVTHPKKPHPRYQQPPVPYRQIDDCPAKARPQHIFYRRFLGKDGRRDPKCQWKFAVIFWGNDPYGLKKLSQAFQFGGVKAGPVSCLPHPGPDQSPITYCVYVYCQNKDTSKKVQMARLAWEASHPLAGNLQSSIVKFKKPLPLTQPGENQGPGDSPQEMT
# [3] = target: T2, Tyrosine-protein phosphatase non-receptor type 7 (Homo sapiens, UniProt P35236); test: redox-active compounds inhibiting HePTP phosphatase – biochemical, fluorescence, mechanism study (AID 2068); type: functional
# T2 sequence (P35236 whole entry): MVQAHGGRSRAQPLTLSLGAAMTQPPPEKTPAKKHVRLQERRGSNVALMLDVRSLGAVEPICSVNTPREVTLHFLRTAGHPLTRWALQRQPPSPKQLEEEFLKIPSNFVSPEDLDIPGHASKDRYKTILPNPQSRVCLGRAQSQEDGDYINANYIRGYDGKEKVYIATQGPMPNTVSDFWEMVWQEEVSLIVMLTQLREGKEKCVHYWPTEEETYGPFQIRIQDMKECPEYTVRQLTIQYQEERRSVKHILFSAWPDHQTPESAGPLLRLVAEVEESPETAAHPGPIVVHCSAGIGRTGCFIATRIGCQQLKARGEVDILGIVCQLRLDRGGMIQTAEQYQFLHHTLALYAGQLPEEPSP
# [4] = target: Eukaryotic translation initiation factor 4E (Mus musculus, UniProt P63073); test: blockers of eIF4G binding by eIF4E – biochemical, TR-FRET, dose response (AID 855); type: functional;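 further: potency for disrupting eIF4E binding to eIF4GI seen as loss of FRET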
# [5] = target: T3, Apoptotic protease-activating factor 1 (Homo sapiens, UniProt O14727); type: functional
# T3 sequence (O14727 whole entry): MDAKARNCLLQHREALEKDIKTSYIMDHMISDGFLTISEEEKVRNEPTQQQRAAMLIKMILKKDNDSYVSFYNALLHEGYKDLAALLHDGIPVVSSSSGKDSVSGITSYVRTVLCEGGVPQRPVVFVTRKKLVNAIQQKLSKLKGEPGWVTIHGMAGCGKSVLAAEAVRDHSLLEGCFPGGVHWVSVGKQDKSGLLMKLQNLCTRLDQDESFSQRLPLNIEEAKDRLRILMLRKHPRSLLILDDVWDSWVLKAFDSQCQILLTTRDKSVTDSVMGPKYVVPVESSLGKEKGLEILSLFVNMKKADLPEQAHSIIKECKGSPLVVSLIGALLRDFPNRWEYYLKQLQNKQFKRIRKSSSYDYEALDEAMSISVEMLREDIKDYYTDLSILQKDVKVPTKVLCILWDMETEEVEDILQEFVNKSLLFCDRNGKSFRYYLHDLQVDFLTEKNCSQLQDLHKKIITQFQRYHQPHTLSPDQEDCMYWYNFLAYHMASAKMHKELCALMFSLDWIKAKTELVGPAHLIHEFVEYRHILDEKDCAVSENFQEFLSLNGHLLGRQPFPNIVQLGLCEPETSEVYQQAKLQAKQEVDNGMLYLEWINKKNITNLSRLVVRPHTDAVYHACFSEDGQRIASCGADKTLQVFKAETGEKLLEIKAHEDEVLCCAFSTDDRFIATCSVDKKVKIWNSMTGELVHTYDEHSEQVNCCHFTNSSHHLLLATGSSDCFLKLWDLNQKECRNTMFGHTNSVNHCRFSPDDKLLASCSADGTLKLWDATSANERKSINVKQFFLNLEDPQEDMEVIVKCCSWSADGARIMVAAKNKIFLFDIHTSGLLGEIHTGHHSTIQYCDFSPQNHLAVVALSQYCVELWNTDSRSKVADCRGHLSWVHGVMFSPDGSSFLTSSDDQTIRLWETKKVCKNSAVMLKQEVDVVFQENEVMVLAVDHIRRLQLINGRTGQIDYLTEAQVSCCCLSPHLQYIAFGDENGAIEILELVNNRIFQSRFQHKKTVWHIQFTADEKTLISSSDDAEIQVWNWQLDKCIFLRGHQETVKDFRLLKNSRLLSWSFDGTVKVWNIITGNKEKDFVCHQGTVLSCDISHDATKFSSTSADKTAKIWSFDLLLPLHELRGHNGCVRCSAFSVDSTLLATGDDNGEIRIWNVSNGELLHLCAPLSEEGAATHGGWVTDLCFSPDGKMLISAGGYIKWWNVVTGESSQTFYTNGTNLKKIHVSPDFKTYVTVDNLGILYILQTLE
# Genome polyprotein = Genome polyprotein (dengue virus type 2, UniProt P29990); test: flavivirus cap methylation enzyme inhibition – biochemical, confirmation dose response, primary screen (AID 588689); type: functional
# [6] = target: T4, Polyadenylate-binding protein 1 (Homo sapiens, UniProt P11940); test: MLLE binding blockers, Cy5 peptide tracer – biochemical, fluorescence polarization, Cy5-PAM2 peptide, secondary, miRNA deadenylation inhibitor project, dose response (AID 602260); type: functional; conditions: read-out: IC50_Mean
# [7] = target: T4, Polyadenylate-binding protein 1; test: MLLE domain peptide-binding blockers, IC50 – biochemical, fluorescence polarization, FITC-PAM2 peptide, dose response (AID 602259); type: functional; conditions: read-out: IC50_Mean
# Albumin = Albumin (Bos taurus, UniProt P02769); test: Counterscreen for inhibitors of T-cell receptor (TCR)-CD3 interaction: Fluorescence-based biochemical high throughput dose response assay to identify inhibitors of T-cell receptor (TCR)-CD3 interaction using a TAMRA-labeled BSA probe.; type: functional
# [8] = target: Glutathione-S-transferase (Schistosoma japonicum, UniProt Q26513); test: GST-antibody interaction or FRET quenching – biochemical, TR-FRET, artefact control for Vif-APOBEC3G degradation inhibitor project, dose response (AID 1117362); type: functional
# Sequence of Glutathione-S-transferase (Q26513 whole entry): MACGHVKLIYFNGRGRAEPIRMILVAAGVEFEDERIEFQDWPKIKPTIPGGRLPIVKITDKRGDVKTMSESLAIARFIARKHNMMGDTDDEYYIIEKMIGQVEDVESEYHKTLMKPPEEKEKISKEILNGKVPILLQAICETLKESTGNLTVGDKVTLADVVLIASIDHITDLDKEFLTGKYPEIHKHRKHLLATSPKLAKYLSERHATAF
# T4 sequence (P11940 whole entry, the tested form may be a part): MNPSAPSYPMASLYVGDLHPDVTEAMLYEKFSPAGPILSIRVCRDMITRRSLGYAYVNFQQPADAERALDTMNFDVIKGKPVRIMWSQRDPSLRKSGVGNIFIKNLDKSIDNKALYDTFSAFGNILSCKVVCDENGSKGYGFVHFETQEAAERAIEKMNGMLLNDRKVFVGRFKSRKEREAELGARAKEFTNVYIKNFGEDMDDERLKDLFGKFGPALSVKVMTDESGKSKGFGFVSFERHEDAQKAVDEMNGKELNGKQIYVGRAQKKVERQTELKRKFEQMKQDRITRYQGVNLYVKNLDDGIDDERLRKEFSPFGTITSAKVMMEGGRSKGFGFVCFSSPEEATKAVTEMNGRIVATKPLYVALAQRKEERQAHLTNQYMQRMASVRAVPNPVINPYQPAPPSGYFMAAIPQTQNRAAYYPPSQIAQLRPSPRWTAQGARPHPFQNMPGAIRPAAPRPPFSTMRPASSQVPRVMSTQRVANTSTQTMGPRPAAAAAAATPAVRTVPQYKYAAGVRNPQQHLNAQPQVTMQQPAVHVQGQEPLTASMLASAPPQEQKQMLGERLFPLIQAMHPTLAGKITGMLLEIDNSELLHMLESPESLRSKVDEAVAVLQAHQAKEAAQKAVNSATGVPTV
# Sequence of Large T antigen (P03070 whole entry): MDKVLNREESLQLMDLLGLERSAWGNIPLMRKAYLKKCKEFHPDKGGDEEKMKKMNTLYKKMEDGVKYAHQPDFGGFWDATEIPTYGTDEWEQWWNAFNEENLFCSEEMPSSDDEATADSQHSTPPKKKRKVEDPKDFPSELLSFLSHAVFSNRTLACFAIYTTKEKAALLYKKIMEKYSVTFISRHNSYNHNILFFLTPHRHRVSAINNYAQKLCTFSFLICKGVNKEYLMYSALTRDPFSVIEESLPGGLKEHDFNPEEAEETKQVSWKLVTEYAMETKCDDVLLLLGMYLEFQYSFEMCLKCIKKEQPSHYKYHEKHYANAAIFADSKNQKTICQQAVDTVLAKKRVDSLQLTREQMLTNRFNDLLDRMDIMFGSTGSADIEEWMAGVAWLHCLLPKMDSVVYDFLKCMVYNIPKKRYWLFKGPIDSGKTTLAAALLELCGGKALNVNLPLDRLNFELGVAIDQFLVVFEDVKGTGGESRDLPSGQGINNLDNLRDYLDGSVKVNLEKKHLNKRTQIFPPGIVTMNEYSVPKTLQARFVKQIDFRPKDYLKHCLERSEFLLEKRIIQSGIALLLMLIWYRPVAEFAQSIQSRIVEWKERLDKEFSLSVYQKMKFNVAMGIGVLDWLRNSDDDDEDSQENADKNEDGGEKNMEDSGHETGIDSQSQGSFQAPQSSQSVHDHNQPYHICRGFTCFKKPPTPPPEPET
# Sequence of Induced myeloid leukemia cell differentiation protein Mcl-1 (Q07820 whole entry): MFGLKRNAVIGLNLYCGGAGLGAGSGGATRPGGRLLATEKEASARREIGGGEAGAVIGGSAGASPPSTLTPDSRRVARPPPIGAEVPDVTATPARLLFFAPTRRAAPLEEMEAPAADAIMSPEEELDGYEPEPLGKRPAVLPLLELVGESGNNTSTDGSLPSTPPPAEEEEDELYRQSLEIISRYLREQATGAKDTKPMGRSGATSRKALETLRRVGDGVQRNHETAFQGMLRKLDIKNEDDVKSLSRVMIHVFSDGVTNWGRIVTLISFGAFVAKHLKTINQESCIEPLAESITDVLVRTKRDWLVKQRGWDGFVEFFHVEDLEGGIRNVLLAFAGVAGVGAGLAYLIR
# Sequence of Dual specificity protein phosphatase 3 (P51452 whole entry): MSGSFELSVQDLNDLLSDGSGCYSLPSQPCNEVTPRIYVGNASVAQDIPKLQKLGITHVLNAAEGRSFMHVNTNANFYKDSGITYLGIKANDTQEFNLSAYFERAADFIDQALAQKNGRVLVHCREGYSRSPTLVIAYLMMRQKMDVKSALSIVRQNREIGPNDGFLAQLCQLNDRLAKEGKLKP
# Sequence of Eukaryotic translation initiation factor 4E (P63073 whole entry): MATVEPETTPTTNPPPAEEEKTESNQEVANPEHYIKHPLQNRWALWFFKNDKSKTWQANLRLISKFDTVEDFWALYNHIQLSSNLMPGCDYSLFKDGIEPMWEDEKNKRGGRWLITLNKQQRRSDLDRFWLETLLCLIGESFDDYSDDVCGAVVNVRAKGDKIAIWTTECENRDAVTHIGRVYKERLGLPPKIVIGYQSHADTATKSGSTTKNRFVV
# Sequence of Genome polyprotein (P29990 2492-3391 limits assumed): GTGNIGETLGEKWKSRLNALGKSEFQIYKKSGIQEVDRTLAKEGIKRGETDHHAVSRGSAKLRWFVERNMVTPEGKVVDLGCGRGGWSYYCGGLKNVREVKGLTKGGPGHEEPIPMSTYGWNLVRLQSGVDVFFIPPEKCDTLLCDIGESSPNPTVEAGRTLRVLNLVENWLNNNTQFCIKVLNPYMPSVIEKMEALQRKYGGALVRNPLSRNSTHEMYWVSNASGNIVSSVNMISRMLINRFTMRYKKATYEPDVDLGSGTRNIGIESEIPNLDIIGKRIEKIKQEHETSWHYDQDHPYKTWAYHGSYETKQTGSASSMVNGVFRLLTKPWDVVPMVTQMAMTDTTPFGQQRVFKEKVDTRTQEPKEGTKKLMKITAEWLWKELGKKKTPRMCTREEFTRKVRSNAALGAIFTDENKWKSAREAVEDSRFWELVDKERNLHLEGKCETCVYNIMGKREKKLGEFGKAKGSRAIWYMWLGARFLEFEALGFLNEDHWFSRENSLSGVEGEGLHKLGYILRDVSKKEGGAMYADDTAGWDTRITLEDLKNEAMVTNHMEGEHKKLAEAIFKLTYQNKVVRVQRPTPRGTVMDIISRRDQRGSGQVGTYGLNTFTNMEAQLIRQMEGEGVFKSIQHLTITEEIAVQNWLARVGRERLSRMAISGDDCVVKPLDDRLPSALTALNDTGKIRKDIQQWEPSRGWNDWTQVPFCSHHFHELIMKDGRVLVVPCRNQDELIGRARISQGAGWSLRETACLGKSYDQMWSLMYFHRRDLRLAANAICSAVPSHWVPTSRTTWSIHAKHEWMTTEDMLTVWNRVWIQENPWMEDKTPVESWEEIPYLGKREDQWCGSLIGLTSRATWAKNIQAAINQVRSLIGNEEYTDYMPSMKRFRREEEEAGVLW
# Sequence of Albumin (P02769 whole entry): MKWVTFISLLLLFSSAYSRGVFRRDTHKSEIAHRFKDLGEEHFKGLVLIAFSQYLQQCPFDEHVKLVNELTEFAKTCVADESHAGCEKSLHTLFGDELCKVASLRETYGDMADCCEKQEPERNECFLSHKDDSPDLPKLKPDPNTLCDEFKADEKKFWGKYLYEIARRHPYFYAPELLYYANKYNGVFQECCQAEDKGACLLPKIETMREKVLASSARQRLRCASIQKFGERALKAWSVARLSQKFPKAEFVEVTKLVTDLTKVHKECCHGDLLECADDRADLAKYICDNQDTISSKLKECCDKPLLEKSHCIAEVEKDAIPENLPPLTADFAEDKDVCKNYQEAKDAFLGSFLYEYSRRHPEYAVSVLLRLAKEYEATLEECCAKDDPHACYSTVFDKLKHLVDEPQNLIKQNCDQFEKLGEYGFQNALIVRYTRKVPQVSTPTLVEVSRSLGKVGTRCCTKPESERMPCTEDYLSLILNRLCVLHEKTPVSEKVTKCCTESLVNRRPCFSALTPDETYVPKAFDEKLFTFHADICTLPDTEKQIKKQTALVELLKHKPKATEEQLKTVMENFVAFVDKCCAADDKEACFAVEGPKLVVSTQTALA
compound,measurement,setting,value
COCCNC(=O)Nc1ccc2nc(-c3ccco3)c(-c3ccco3)nc2c1,IC50,Large T antigen,> 100 µM (active)
same,IC50,[1],0.831 µM (active)
same,IC50,[2],0.492 µM (active)
same,AC50,Salmon testes DNA,63.1 µM (active)
same,AC50,ORF 73,23.5 µM (active)
same,IC50,[3],0.198 µM (active)
same,IC50,[4],50 µM (inactive)
same,IC50,[5],52 µM (active)
same,IC50,Genome polyprotein,27.9 µM (active)
same,IC50,[6],> 66 µM (inactive)
same,IC50,[7],39.2 µM (inactive)
same,IC50,Albumin,> 94.1 µM (inactive)
same,IC50,[8],> 100 µM (active)
